Source: PMC8607422, “Development of a novel TLR8 agonist for cancer immunotherapy” (Molecular Biomedicine, 2020)

Columns and labels:
[1] = target: T1, CYP 2C19 (Homo sapiens, UniProt P33261); experiment: CYP inhibition assay in human liver microsomes; type: in vitro ADME
T1 construct: using human liver microsomes (BD Gentest); tissue BD Gentest; host or cells: human liver microsomes
Method: (§1) CYP inhibition assay was conducted to evaluate the inhibitive potential of the compounds on CYP 1A2, 2C9, 2C19, 2D6 and 3A4 using human liver microsomes (BD Gentest). Curve-fitting was performed to calculate IC50 using a Sigmoidal (non-linear) dose-response model using GraphPad Prism (GraphPad Software Inc.).

[2] = target: T2, CYP 2C9 (Homo sapiens, UniProt P11712); experiment: CYP inhibition assay in human liver microsomes; type: in vitro ADME
T2 construct: using human liver microsomes (BD Gentest); tissue BD Gentest; host or cells: human liver microsomes
T2 sequence (P11712 whole entry): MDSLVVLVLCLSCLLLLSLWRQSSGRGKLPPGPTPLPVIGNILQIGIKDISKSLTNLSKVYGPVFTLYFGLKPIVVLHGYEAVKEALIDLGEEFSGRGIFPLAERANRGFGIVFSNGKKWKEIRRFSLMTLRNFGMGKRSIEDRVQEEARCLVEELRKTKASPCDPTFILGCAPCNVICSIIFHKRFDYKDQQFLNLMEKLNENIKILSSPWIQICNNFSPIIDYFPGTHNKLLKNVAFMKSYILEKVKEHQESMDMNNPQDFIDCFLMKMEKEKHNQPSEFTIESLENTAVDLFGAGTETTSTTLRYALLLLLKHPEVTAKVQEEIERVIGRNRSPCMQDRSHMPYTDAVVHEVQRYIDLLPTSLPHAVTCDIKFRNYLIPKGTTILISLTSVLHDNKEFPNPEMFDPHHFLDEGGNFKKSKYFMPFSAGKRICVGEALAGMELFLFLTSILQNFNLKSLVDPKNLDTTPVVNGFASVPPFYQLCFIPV
Method: as §1

[3] = target: T3, CYP 1A2 (Homo sapiens, UniProt P05177); experiment: CYP inhibition assay in human liver microsomes; type: in vitro ADME
T3 construct: using human liver microsomes (BD Gentest); tissue BD Gentest; host or cells: human liver microsomes
T3 sequence (P05177 1-516): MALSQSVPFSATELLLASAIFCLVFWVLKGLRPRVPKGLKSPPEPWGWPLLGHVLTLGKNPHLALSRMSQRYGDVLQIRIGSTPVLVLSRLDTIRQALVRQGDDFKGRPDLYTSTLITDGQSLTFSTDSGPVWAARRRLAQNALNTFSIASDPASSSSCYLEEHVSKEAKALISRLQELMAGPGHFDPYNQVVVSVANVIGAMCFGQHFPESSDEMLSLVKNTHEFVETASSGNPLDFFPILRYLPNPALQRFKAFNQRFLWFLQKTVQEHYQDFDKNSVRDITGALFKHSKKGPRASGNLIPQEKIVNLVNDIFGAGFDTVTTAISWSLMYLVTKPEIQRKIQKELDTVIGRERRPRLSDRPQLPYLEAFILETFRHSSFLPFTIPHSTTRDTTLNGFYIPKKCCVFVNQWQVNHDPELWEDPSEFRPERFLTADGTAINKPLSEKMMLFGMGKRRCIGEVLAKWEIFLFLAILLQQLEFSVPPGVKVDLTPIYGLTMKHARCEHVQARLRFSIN
Method: as §1

[4] = target: T4, CYP 3A4 (Homo sapiens, UniProt P08684); experiment: CYP inhibition assay in human liver microsomes; type: in vitro ADME
T4 construct: using human liver microsomes (BD Gentest); tissue BD Gentest; host or cells: human liver microsomes
T4 sequence (P08684 whole entry): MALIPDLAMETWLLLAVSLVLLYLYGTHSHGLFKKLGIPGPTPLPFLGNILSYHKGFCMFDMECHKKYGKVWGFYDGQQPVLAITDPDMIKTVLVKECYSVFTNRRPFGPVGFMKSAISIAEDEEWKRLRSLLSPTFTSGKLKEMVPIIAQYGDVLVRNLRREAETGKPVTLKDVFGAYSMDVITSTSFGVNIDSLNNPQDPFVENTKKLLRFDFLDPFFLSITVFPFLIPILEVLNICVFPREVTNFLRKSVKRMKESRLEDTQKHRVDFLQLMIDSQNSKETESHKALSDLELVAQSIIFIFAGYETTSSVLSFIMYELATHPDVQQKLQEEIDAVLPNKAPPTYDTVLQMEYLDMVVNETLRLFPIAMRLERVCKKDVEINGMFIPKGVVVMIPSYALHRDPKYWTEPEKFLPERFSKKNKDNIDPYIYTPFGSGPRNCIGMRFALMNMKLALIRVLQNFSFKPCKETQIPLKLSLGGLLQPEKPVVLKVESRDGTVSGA
Method: as §1

[5] = target: T5, CYP 2D6 (Homo sapiens, UniProt P10635); experiment: CYP inhibition assay in human liver microsomes; type: in vitro ADME
T5 construct: using human liver microsomes (BD Gentest); tissue BD Gentest; host or cells: human liver microsomes
T5 sequence (P10635 whole entry): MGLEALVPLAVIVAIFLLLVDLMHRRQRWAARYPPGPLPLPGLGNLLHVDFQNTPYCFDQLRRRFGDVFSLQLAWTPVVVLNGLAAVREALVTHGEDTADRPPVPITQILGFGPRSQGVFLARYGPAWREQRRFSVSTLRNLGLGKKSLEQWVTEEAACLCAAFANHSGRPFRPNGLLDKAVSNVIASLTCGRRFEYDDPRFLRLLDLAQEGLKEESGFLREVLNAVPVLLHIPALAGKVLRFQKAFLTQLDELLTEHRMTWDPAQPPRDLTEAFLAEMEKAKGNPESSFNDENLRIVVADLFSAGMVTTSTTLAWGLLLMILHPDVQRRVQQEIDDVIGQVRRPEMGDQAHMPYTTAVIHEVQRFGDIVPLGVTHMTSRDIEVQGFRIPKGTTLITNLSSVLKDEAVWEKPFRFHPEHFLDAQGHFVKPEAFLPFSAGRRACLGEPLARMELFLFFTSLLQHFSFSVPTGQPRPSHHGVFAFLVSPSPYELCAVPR
Method: as §1

[6] = design: method as in Northfelt, et al., [39]; conditions: human, sc 0.1 mg/m^2; ref Northfelt, et al., [39]; cited from earlier work
[7] = target: T6, hTLR7 (Homo sapiens, UniProt Q9NYK1); experiment: HEK-Blue hTLR7 SEAP reporter agonist assay; type: cell-based; conditions: HEK-Blue hTLR7 cells, highest concentration 50 μM
T6 construct: host or cells: HEK-Blue hTLR7
T6 sequence (Q9NYK1 27-1049): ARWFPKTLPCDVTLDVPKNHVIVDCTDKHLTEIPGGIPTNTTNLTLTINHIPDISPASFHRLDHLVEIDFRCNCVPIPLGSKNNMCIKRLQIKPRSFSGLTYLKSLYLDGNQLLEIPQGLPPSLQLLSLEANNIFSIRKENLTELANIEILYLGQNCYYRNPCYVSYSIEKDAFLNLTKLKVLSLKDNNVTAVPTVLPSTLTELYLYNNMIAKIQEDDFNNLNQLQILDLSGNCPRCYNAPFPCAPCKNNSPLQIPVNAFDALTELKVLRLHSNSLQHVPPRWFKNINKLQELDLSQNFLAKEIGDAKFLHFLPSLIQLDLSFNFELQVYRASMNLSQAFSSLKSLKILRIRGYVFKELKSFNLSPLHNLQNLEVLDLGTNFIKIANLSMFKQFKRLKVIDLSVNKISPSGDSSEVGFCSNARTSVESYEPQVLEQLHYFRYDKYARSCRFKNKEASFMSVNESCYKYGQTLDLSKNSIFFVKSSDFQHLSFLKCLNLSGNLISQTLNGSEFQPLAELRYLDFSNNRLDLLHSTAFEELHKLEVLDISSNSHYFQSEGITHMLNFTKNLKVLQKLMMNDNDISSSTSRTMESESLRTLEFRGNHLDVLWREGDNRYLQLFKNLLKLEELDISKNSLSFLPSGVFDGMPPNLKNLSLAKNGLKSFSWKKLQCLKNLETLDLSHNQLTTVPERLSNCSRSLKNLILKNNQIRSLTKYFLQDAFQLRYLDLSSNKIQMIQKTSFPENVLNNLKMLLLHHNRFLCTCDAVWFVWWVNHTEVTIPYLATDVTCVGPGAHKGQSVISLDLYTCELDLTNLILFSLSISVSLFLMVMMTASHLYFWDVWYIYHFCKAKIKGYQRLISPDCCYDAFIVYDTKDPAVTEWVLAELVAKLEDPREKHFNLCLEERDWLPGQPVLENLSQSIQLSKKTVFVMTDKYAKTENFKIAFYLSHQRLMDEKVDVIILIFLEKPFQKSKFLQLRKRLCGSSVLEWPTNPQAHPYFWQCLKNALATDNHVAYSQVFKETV
Description: HEK-Blue™ hTLR4, 7, 8 and 9 cell lines were purchased from InvivoGen (Hong Kong). The cells express the human TLR gene and NF-κB/AP-1-inducible SEAP (secreted embryonic alkaline phosphatase) reporter gene. SEAP levels produced upon TLR stimulation can be determined by QUANTI-Blue™. In the cell-based assay, the main reagents used were QUANTI-Blue™ (InvivoGen) and ATPlite 1 Step (Perkin Elmer). The main instruments used were the microplate reader SpectraMax 340PC (Molecular Device) and Envision (Perkin Elmer). Motolimod and DN052 were synthesized in house. […] The compounds were in 10 mM stock solution in DMSO and stored at − 20°C. The compounds were serially diluted in the concentration range from 0.5 nM to 15 μM (up to 50 μM in the hTLR4, hTLR7 and hTLR9 assays) and added to 96-well plates. DMSO was used as the negative control. LPS-EK, R848, motolimod and ODN2006 were used as the positive control for TLR4, 7, 8 and 9, respectively. The cells were cultured and treated with the compounds at 37°C, 5%CO2 for 24 h. […] After 1.5 h of incubation, the optical density was measured using the spectrophotometer at 650 nm in the microplate reader of SpectraMax 340PC. The cell viability of each well was determined using ATPlite 1 Step following the manufacturer’s instruction. The luminescence signal in each well of plates was measured in the microplate reader of Envision.

[8] = target: T7, hERG (Homo sapiens, UniProt Q12809); experiment: hERG assay, whole-cell recordings with automated QPatch in CHO cells; type: cell-based
T7 construct: expressed in transfected cells; host or cells: CHO
T7 sequence (Q12809 whole entry): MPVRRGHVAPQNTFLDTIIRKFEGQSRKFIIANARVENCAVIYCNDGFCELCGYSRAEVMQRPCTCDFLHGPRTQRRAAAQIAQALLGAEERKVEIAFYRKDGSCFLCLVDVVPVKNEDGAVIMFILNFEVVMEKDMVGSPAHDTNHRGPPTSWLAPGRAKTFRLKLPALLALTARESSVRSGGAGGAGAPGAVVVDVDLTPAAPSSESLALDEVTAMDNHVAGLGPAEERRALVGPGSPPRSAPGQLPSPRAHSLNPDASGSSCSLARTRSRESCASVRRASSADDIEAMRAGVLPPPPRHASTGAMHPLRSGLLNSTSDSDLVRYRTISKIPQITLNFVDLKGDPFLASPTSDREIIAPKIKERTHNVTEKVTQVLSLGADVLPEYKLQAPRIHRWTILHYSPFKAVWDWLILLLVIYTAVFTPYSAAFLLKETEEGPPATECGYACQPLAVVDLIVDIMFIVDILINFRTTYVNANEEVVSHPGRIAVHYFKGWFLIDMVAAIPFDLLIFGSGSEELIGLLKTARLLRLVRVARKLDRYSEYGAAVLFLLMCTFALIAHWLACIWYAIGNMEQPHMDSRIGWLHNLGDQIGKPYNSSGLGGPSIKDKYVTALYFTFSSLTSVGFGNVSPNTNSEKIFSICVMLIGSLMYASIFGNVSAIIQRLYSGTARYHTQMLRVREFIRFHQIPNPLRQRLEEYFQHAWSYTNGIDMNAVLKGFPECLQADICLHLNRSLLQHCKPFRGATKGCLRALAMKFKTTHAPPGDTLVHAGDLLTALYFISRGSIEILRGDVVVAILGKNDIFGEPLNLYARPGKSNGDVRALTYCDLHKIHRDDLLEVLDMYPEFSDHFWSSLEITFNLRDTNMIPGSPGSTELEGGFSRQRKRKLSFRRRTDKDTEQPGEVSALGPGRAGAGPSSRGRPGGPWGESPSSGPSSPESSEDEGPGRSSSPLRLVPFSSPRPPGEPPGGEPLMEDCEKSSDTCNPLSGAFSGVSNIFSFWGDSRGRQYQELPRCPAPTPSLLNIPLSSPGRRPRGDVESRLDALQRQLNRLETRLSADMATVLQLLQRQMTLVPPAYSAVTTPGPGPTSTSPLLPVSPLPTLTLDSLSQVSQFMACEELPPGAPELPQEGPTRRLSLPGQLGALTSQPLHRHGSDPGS
Method: hERG assay was conducted using CHO cell line stably transduced with hERG cDNA. Whole-cell recordings were performed using automated QPatch (Sophion Biosciences). Data were analyzed using Assay Software provided by Sophion (assay software V5.0), Microsoft Excel and GraphPad Prism.

T1 sequence (P33261 whole entry): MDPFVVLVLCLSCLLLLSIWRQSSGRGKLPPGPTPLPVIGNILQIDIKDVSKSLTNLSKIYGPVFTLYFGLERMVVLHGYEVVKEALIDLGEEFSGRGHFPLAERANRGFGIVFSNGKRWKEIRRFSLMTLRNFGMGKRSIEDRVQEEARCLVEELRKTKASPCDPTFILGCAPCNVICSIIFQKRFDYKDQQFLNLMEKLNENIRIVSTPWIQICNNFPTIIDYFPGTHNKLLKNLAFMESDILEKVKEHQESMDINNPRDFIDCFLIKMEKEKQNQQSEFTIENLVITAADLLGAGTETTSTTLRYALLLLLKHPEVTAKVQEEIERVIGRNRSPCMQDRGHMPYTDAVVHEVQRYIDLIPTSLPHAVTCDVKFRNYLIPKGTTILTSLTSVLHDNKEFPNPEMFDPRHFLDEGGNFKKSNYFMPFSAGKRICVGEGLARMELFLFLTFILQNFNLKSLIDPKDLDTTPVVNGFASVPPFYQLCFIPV

## CCCN(CCC)C(=O)C1=Cc2ccc(-c3ccc(C(=O)N4CCCC4)cc3)cc2N=C(N)C1 [Motolimod, motolimod]
[1]
  IC50: > 10 µM
[2]
  IC50: > 10 µM
[3]
  IC50: > 10 µM
[4]
  IC50: > 10 µM
[5]
  IC50: > 10 µM
[6]
  AUC(0-t): 2.99 ng·h/mL
  Cmax: 1.52 ng/mL
  Tmax: 0.53 h
  t1/2: 1.73 h
[7]
  EC50: 19.8 µM
[8]
  IC50: 3.84 µM
